Reference: patent US12070463B2, “Compositions and methods for the treatment of seizure caused by brain tumor” (Board Of Supervisors Of Louisiana State University And …, priority 2015, dated 2024)
Entries after “also recorded” stand apart in the source; their conditions may differ.

Columns and labels:
MIP-2 [1] = test: Hippocampal MIP-2 after neuroinflammation (LPS / post status epilepticus), bead-based immunodetection; assay type: in vivo, mice; conditions: 60 mg/kg/daily for 5 days i.p.
Procedure: MIP-2 was measured using bead-based immunodetection. Values are means±SD: *P<0.05 (two-way repeated-measures ANOVA).
MIP-2 was measured using bead-based immunodetection respectively. Diamonds: interval of confidence; diamond internal horizontal line; group mean; bar lines; standard deviation. Data represent average and bars±S.E.M; n=3 of each group. ANOVA one way, *=p<0.05.
Pro-inflammatory molecular analysis: LC-MS/MS-based mediator lipidomic analysis will be evaluated as described previously (Musto et al., 2011, Musto and Samii, 2011), chemokine analysis was performed using commercial enzyme-linked immune-absorbent assay (Rodent MAPs Myira RBM, USA), and matrix metalloproteinase (MMP) activity were investigated by gelatin zymography assay (Ramaswamy et al., 2014).

[2] = Pentylenetetrazol (PTZ) test, locomotor seizures by modified Racine's score; assay type: in vivo, mice; conditions: single dose 60 mg/kg i.p. 2 h before PTZ 40 mg/kg i.p.; vs vehicle
Procedure: A single dose (i.p.) of a LAU compound 60 mg/kg; ip.) or vehicle (0.1 mL of sterile 0.9% sodium chloride) was administered 2 h before a single dose of pentylenetetrazol (PTZ) (40 mg/kg; i.p.). Data represent average and bars±S.E.M. t-test between vehicle and for each LAU compound: LAU0901 p<0.031; others: p<0.0001 at 60 mins. Maximum seizure levels and the percentage reduction from vehicle after PTZ injection are shown. Locomotor seizures were video recorded and quantified according to a modified Racine's score (Stage: 0 normal locomotor activity. Stage 1, behavioral arrest, Stage 2: head nodding; stage 3, facial movements and contralateral forelimb dorms).
Pentylenetetrazol test: The systemic administration of pentylenetetrazol (PTZ) in rodents, an accepted model to test the potential anti-convulsive effect (Loscher, 2011) was used to evaluate seizure susceptibility in mice with GBM cell implantation. It has been seen that systemic administration of PTZ at 35 mg/kg is useful as a sub-convulsive dose to evaluate seizures after brain damage. Animals were placed in individual Plexiglas cages (28×28×37.5 cm) and then a single dose of PTZ (Sigma, St. Louis, MO) at 35 mg/kg were administered intraperitoneally (i.p.) to each animal. Locomotor seizures were quantified according to a modified Racine's Score classified as previously described (Musto et al., 2009, 2011).

[3] = test system: dysmorphic filopodia-like spines; test: Dysmorphic filopodia-like dendritic spines in epileptogenesis, Golgi staining; assay type: in vivo, mice; conditions: 7 days after SE
Procedure: Cyto-architecture hippocampal neurons, dendrites and dendritic spines was evaluated using rapid Golgi staining and the DIOLISTIC labeling approach, as shown in FIG. 12A. Then dendrites and dendritic spines from pyramidal cells were reconstructed, analyzed, and visualized in a 30 shape of neurons from the ipsi and contralateral hippocampal region using light and confocal microscopy, digitally-traced, mediated computational analysis.

U87MG cells = test: Hippocampal U87MG GBM xenograft, tumor growth by in vivo bioluminescent imaging; design: species or system BALB/c (nu/nu) mice
Procedure: FIGS. 3A-3C illustrate that a PAF-r antagonist reduces GBM tumor size. U87MG cells were implanted in the right dorsal CA3 hippocampal region of BALB/c (nu/nu) mice. Intracranial tumor growth was quantified using Jo vivo bioluminescent imaging on days 10 and 25. Saline (vehicle) or LAU-0901 (60 mg/kg/day; i.p., n=6 in each group) was administered daily from day 10, during 5 days.
Experimental Design and Methods: PAF-r deficient and wild type mice and athymic nude mice, 6 to 8 weeks of age (Harlan Laboratories) mice were used. The xerograph GBM mouse model is representative of this tumor, which has a narrow survival window. These cells form a massive and homogenous mass from tumor-initiating cells, are localized, and invade neuronal tissue. This model is a predictor of therapeutic responses in human glioblastoma patients. U87MG cells (FIGS. 2A-3C) with a luciferase reporter gene were injected (5×10^5 cells in […] serum-free DMEM) into the right dorsal CA3 hippocampal region (coordinates: 2.5 mm lateral, 1.7 mm posterior to the bregma, and 1.5 depth) of mice (6-8 wks of age) (Marrero et al., 2014).
In vivo imaging analysis: Intracranial tumor growth was quantified by bioluminescent imaging using an in vivo imaging system and procedures as described by Marrero et al., 2014, incorporated herein by reference in its entirety.

Lyn kinase = test: Phospho-Lyn in hippocampal synapsis after SE, immunohistology; assay type: in vivo, mice; conditions: hippocampus
microglia = conditions: in vivo; cited from earlier work
[4] = Seizure susceptibility and survival after status epilepticus (SE); assay type: in vivo, BALB/c (nu/nu) mice; conditions: 60 mg/kg i.p. daily for 5 days, 24 h after SE
Procedure: BABL/c (nu/nu) mice received compound LAU-0901 (60 mg/kg; i.p.) or saline daily for 5 days 24 h after SE.
GBM cells were implanted into PAF-r deficient or wild type mice. Lyn kinase inhibitor (Dasatinib; 0.01 mL/g) (Luo et al., 2000) or vehicle (propylene glycol/water) was administered intraperitoneally at 14 d after GBM implantation and continues for 14 d. Alternatively, BALB/c, (nu/nu) mice received LAU-0901 (60 mg/kg; i.p.) or saline daily for 5 days (n=4-5 per group) 24 h after SE. Weight, locomotion, survival rate, behavior, in vivo tumor growth, and GBM cells were analyzed.

MIP-2 [5] = test: MIP-2 in mice with GBM; assay type: in vivo; conditions: compared with vehicle

2,4,6-trimethyl-1,4-dihydro-pyridine-3,5-dicarboxylic acid 5-[2-(3,4-dichlorophenyl) sulfanethyl ester 3-[1,3-di-(4-morpholinyl)-2-propyl-1-ester [LAU-0901]
hippocampal levels of MIP-2 (MIP-2 [1]; LPS one week after status epilepticus, vs saline (FIG. 4)): reduced | hippocampal levels of MIP-2 (MIP-2 [1]; LPS or one week after status epilepticus (PSE), vs vehicle (FIG. 20), 60 mg/kg): limited; also recorded: reduces | neuronal hyper-excitability (locomotor seizures after PTZ) [2]: counteract neuronal hyper-excitability | average spine length for dysmorphic filopodia-like spines [3]: increased in the vehicle-treated compared to the LAU-0901-treated group | tumor size (U87MG cells; 60 mg/kg/day i.p. for 5 days from day 10, representative images, 10 week-survival period, vs saline): dramatically reduced | tumor size diminished compared to saline-treated group (U87MG cells; day 25, 60 mg/kg/day i.p. for 5 days from day 10): 80% | body weight (U87MG cells; weeks 8 and 10, compared to saline group): increased | puncta phospho-Lyn and co-localization with pre- and post-synaptic markers (Lyn kinase): low puncta phospho-Lyn | microglia activation (microglia): reduces microglia activation | seizure severity [4]: reduced seizure severity

CC(C)Cc1ccc([C@@H](C)C(=O)NS(C)(=O)=O)cc1 [repertaxin]
increases of MIP-2 (MIP-2 [5]): higher in those mice treated with vehicle
